Values of other authors in patent US20040024003A1, “Flat medicinal preparation for transmucosal administration of oxycodon or a comparable active ingredient in the oral cavity, for use in pain therapy and in addiction therapy” (priority 1999, published 2004).

Key:
[1] = in vivo

COc1ccc2c3c1O[C@H]1C(=O)CC[C@@]4(O)[C@@H](C2)N(C)CC[C@]314 [oxycodone]
time taken to enter the blood (normal peroral administration): 15 to 30 min | bioavailable fraction following peroral administration (peroral administration): two thirds | average duration of action [1]: 4 to 6 h
